{"source": "patent US6716883B1", "about": "“Composition useful to treat periodontal disease” (priority 1998, dated 2004)", "key": {"[1]": {"tested_on": "chick periosteal osteogenesis (CPO) cultures", "assay": "Histological evaluation of bone formation in chick periosteal osteogenesis (CPO) cultures", "type": "cell-based", "protocol": "In this experiment, the chick periosteal osteogenesis (CPO) model was used to determine if bone loss is induced by dioxin. The CPO model has been described in detail previously (Nijweide, Proc. Kon. Ned. Akad. Wet. 1975. C78:410-417) and was prepared for the purposes of this experiment as set out below.\nFollowing sacrifice, two triangular calvarial explants were removed by cutting along the central suture, transversely along the posterior suture and laterally above the eye in 17-day-old embryonic chicks. The ectocranial periosteum (outer curved surface) was peeled off using forceps under microscopic magnification and folded so that the surface originally facing bone was in apposition to itself as described previously (Tenenbaum et al., Calcif Tissue Int. 34:76-79). The folded explant was then placed on a Millipore filter (HA 0.45 μm), which was transferred onto a stainless steel grid resting in the center well of an organ culture dish (Falcon Plastics, Lincoln Park, N.J., USA) that was filled with culture media to a level such that the culture was supported at the gas-liquid interface (˜1.5 ml of media). Three cultures were placed in each dish which was then covered and incubated at 37° C. in a humidified atmosphere containing 5% CO2 in air. Media changes occurred on days 2 and 4, and the medium was comprised of BGJb medium (Fitton-Jackson Modification) with L-glutamine (Gibco, Grand Island, N.Y., USA) and supplemented with 2% antibiotic (10,000 units/ml Penicillin G sodium, 10,000 μg/ml Streptomycin sulfate in 0.85% saline) (Gibco), 10% fetal calf serum (Gibco), 10^−7M dexamethasone (Sigma, St. Louis, Mo., USA), 10 mM β-glycerophosphate, and 300 μg/ml L-ascorbate (Gibco).\nFor the purposes of this investigation, the effects of a potent aryl hydrocarbon, TCDD (2,3,7,8-tetrachlorodibenzo-p-dioxin or dioxin) on the early events occurring during osteogenesis were determined. The CPO model traverses a number of phases of osteogenesis. […]"}, "AhR in SBMC cells": {"target": "T1, AhR in SBMC cells (Rattus norvegicus, UniProt P41738)", "T1 construct": "endogenous in cells; host or cells: rat stromal bone marrow cell line (RSBMC / SBMC)", "T1 sequence (P41738 10-853)": "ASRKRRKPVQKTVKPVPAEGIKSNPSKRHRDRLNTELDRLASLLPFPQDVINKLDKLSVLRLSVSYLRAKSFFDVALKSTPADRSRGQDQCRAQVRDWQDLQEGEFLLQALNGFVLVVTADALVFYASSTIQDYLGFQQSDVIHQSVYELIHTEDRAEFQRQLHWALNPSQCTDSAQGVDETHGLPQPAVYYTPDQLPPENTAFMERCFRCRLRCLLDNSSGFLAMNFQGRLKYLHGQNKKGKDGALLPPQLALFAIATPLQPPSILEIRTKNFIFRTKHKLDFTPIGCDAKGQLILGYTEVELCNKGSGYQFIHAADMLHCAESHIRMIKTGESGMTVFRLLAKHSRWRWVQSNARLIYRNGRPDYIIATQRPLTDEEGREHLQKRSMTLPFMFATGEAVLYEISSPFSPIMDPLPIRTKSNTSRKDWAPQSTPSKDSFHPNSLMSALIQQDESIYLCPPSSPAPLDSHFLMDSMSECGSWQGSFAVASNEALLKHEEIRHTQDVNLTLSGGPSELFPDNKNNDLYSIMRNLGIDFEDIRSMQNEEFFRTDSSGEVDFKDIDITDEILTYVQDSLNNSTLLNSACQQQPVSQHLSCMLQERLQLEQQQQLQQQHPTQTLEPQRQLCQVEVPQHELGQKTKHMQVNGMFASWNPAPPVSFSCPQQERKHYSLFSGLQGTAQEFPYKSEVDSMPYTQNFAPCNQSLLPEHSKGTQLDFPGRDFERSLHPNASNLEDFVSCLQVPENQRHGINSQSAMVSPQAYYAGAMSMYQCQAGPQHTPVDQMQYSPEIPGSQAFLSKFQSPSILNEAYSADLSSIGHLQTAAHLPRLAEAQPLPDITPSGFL", "assay": "Live whole cell (RSBMC) competitive uptake/binding assay with 3H-TCDD", "procedure": "The need for preincubation (see below) may also alter competition kinetics in this type of binding assay. Cells were plated at a density of 10,000 per well in Titertek 96-well plates, and left overnight to attach in medium. […] Cells were preincubated with cold drug one hour prior to addition of radiolabeled TCDD (specific activity 33.4 Ci/mmol; Chemsyn Lab, Kansas) (pilot studies having shown that preincubation was required to detect competition). One set of wells was incubated without cold drug to determine total binding. ^3H-TCDD (10,000 cpm/well in a volume of 10 μl) was added and incubated for 4 hours at room temperature. The media were aspirated and the cells washed 4× with 100 μl of PBS. 100 μl of 0.1N sulphuric acid was added and the cells were incubated at 37° C. overnight to break the cells open. 80 μl of the lysate was added to 5 ml of scintillation fluid and counted in a beta counter."}, "rat bone marrow cultures [2]": {"tested_on": "rat bone marrow cultures", "assay": "Mineral levels in rat bone marrow cultures treated with BaP", "type": "cell-based", "conditions": "resveratrol and BaP together"}, "IL-1 Beta": {"tested_on": "IL-1 Beta", "conditions": "Casper et al. 1999; cited from earlier work"}, "rat bone marrow cultures [3]": {"tested_on": "rat bone marrow cultures", "assay": "APA in rat bone marrow cultures treated with BaP", "type": "cell-based", "conditions": "resveratrol (10^−6M) added with BaP", "protocol": "In this experiment, the effects of the aryl hydrocarbon, benzo-a-pyrene (BaP) on the early events occurring during osteogenesis were determined. Ten-day old rat bone marrow cultures were treated with increasing concentrations of BaP. The effect of this treatment was monitored by APA as set out above."}}, "note": "pIC50: −log10 of the molar value."}
{"smiles": "Clc1cc2c(cc1Cl)Oc1cc(Cl)c(Cl)cc1O2", "note": "[TCDD, 2,3,7,8-tetrachlorodibenzo-p-dioxin]", "values": [{"measurement": "bone formation (histology)", "setting": "[1]; TCDD-treated CPO cultures, FIG. 1B", "value": "obvious changes in bone formation"}, {"measurement": "pIC50", "setting": "AhR in SBMC cells", "value": "~8.43"}, {"measurement": "concentration reducing 3H-TCDD binding to background levels", "setting": "AhR in SBMC cells; 1 h preincubation with cold drug, 4 h with 3H-TCDD at room temperature", "value": 33, "unit": "nM"}]}
{"smiles": "Oc1ccc(C=Cc2cc(O)cc(O)c2)cc1", "note": "[resveratrol, 3,5,4′-trihydroxystilbene]", "values": [{"measurement": "reversal of TCDD effect on bone formation (histology)", "setting": "[1]; cultures treated with both TCDD and resveratrol, FIG. 1D", "value": "complete reversal of the TCDD effect"}, {"measurement": "bone formation (histology)", "setting": "[1]; resveratrol alone, FIG. 1C", "value": "large deposits of bone similar to the control cultures"}, {"measurement": "reversal of BaP effects on mineral levels", "setting": "rat bone marrow cultures [2]; BaP 10^−8M", "value": "complete reversal"}, {"measurement": "reversal of BaP effects on mineral levels", "setting": "rat bone marrow cultures [2]; higher concentrations of BaP", "value": "partial reversal"}, {"measurement": "induction of IL-1 Beta by AhR ligands", "setting": "IL-1 Beta", "value": "prevent the induction"}, {"measurement": "reversal of BaP's inhibitory effect on alkaline phosphatase", "setting": "rat bone marrow cultures [3]", "value": "reversal of BaP's inhibitory effect"}]}
